From patent publication US12343344B2 (NOVARTIS AG, priority 2019, dated 2025) come the findings set out here.

Data set [1] has as its system phosphorylated ERK1/2 (pERK). The experiment in a line: in vitro pERK inhibition in DETROIT-562 cells. The data set is classed as cell-based. As to conditions: Homo sapiens. The source says:
(§1) SHP2 inhibition can be measured by assessing biomarkers within the MAPK signaling pathway, such as decreased levels of phosphorylated ERK1/2 (pERK) and downregulation of dual specificity phosphatase 6 (DUSP6) mRNA transcript.

For data set [2], the system named is KYSE-520 (esophageal squamous cell carcinoma). As to the kind of experiment: antiproliferation in KYSE-520 cells. As to conditions: Homo sapiens. The data set is classed as cell-based.
For data set [3], the system named is DETROIT-562 (pharyngeal squamous cell carcinoma). As to the kind of experiment: antiproliferation in DETROIT-562 cells. The data set is classed as cell-based. As to conditions: Homo sapiens.
Data set [4] deals with tumor DUSP6 biomarker. The experiment in a line: dose fractionation studies with tumor DUSP6 biomarker. The data set is classed as in vivo. As to conditions: attained for at least 80% of the dosing interval.
Text: as §1

For data set [5], the system named is Cyclin D1, phospho-RB in HCC827 cells. As to the kind of experiment: immunoblot of signalling proteins in HCC827 cells. It counts as cell-based. As to conditions: HCC827, 48 hours treatment, TNO155 together with ribociclib (FIG. 2).
Method: HCC827 cells were plated in 6-well plates at a density of 2×10^5 cells/well in 2 ml of complete culture medium. […] 48 hours after the treatment, cells were harvested in freshly prepared RIPA cell lysis buffer supplemented with Protease and Phosphatase Inhibitor Cocktail. Proteins extracted from cell lysates were separated by electrophoresis using a NuPAGE 4-12% Bis-Tis gel and were transferred to nitrocellulose membranes, followed by standard immunobloting procedures. The primary antibodies used were all from Cell Signaling Technology with the following catalog numbers: phospho-RB (S807/811, #8516), Cyclin D1 (#2978), cleaved PARP (#9546), phospho-ERK (T202/Y204, #4370), phospho-RSK3 (T356/S360, #9348), phospho-AKT (S473, #4060) and Tubulin (#3873). The signals were visualized by simantanous incubation with goat anti-rabbit secondary antibodies conjugated with Alexa Fluor® 700 and the goat anti-mouse secondary antibody conjugated with IRDye 800 CW for Tubulin (protein loading control) and scanning with an Odyssey Infrared Imager System.
The subject of data set [6] is pRb-positive cell lines derived from diverse cancer types. The experiment in a line: pRb phosphorylation and cell cycle in pRb-positive cell lines. It counts as cell-based. As to conditions: more than 40 pRb-positive cell lines.
The subject of data set [7] is lineage-matched pRb-negative cell lines. As to the kind of experiment: cell cycle progression in pRb-negative cell lines. It counts as cell-based.
Data set [8] in a line: tolerability in mice. The data set is classed as in vivo.
The nature of data set [9]: tolerability in rats. It counts as in vivo.
Data set [10] has as its system tumor xenograft models. The experiment in a line: in vivo anti-tumor activity in tumor xenograft models. As to conditions: subsets of xenograft models incl. breast, melanoma, neuroblastoma, malignant rhabdoid, lung, pancreas, hematological malignancies.
[11] abbreviates: up to 28 days, up to 250 mg/kg once daily orally.
Where [12] appears, read: up to 28 days, up to 150 mg/kg once daily orally.

Converted amounts (≈) assume the structure as drawn.

On to `C[C@@H]1OCC2(CCN(c3cnc(Sc4ccnc(N)c4Cl)c(N)n3)CC2)[C@@H]1N` [TNO155, (3S,4S)-8-(6-amino-5-((2-amino-3-chloropyridin-4-yl)thio)pyrazin-2-yl)-3-methyl-2-oxa-8-azaspiro[4.5]decan-4-amine], for which the IC50 worked out at 0.0148 µg/mL (≈ 0.0351 µM) in data set [1], 0.0422 µg/mL (≈ 0.1 µM) in [2] and 0.198 µg/mL (≈ 0.47 µM) in data set [3]. Further, the “PD inhibition at which maximal efficacy is achieved” value in data set [4] was 50%. For the same compound, the “ribociclib-induced cyclin D1 accumulation” value in data set [5] is reported as “prevention of ribociclib-induced cyclin D1 accumulation”.
Regarding `CN(C)C(=O)c1cc2cnc(Nc3ccc(N4CCNCC4)cn3)nc2n1C1CCCC1` [ribociclib, 7-cyclopentyl-N,N-dimethyl-2-((5-(piperazin-1-yl)pyridin-2-yl)amino)-7H-pyrrolo[2,3-d]pyrimidine-6-carboxamide], in data set [6], the “G1 to S phase cell cycle progression” value was “interfered” and the “Retinoblastoma protein (pRb) phosphorylation” value is given as “inhibited”. For the same compound, in data set [7], the “effect on cell cycle progression” value is on record as “no effect”. Also, the myelosuppression result in data set [8] (correlated with pRb inhibition) is listed as “myelosuppression was observed”. In addition, in [8] (setting [11]), the body weight loss is given as no more than 12.5% and the tolerability entry is listed as “well-tolerated”. Moreover, in data set [9] (correlated with pRb inhibition), the myelosuppression result was “myelosuppression was observed”. Further, in data set [9] (setting [12]), the body weight loss is recorded as no more than 12.5% and the tolerability entry was “well-tolerated”. In addition, in [10], the “in vivo anti-tumor activity” value is reported as “demonstrated in vivo anti-tumor activity”.

One may read the IC50 as the concentration needed to halve the response being measured. Low readings indicate inhibition by little substance, high ones a need for much substance.
